{
  "source": "patent US20150143553A1",
  "about": "“Methods And Compositions Comprising A Drosophila Model Of Amyotrophic Lateral Sclerosis” (priority 2013, published 2015)",
  "key": {"[1]": {"tested_on": "Drosophila larvae expressing G298S TDP-43 in motor neurons", "assay": "Drug screen: rescue of lethality caused by G298S TDP-43 expression in motor neurons (D42 Gal4)", "assay_type": "in vivo", "settings": "TDP^G298S", "description": "[…] Larvae expressing TDP-43 (wild type or mutant, as shown) are raised on drug containing food.\n[…] Larvae expressing TDP-43 (wt or mutant) were raised on drug containing food.\nUsing a Drosophila model of ALS based on TDP-43 that recapitulates several aspects of the disease pathophysiology (33, 35), a drug screen aimed at identifying FDA approved compounds with neuroprotective potential in vivo were designed (FIG. 37A). […] This phenotype was used to screen for drug candidates with therapeutic potential as determined by their ability to rescue pupal lethality and produce viable adults with extended wings (FIG. 37A).\nLarvae expressing TDP-43 in motor neurons (D42>TDP-43) were raised on fly food containing different amounts of drug (1, 10 and 25 μM, see Materials and Methods for details) or Dimethyl Sulfoxide (DMSO) as vehicle control (FIG. 37B, C).\nUAS TDP-43 males were crossed with D42-Gal4 female virgins on fly food containing either DMSO or pioglitazone. For DMSO controls, the same volume of DMSO as the corresponding drug concentration was added. Bromophenol blue was added to a final concentration of approximately 0.02% to ensure homogeneity. Crosses were made on drug food with 3 female virgins and 2 males in each vial, and were maintained at 25° C. unless noted. The parents were discarded after 5-7 days then the vials were screened for adult progeny with straight wings from day 14 to day 25. All adults were screened for TDP-43 expression by visualizing the YFP tag. Total number of pupae was counted on day 25. Percent survival was calculated using the formula (total number of straight-winged adults/total number of pupae)×100. All experiments were performed in triplicate."}, "[2]": {"tested_on": "Drosophila larvae expressing wild-type TDP-43 in motor neurons", "assay": "Drug screen: rescue of lethality caused by wild-type TDP-43 expression in motor neurons (D42 Gal4)", "assay_type": "in vivo", "settings": "for Av. % rescue (number of rescued adults/total number of pupae × 100%): TDP^WT"}, "[3]": {"tested_on": "Larvae expressing TDPWT in motor neurons", "assay": "Larval turning assay, D42>TDPWT", "assay_type": "in vivo, Drosophila", "settings": "1 μM pioglitazone in food; DMSO 14.5+/−1 sec", "protocol": "(§1) Assays were performed as disclosed herein. Briefly, wandering third instar larvae were placed on a grape juice plate at room temperature. After becoming acclimated, crawling larvae were gently turned onto their backs (ventral side up) and monitored until they were able to turn back (dorsal side up) and continue their forward movement. The amount of time that it took each larva to complete this task was recorded. Twenty to thirty larvae were used per genotype. Student's t-test was performed to assess statistical significance.\n(§2) Next an ideal drug concentration was determined using a more sensitive and disease relevant assay that measures neuromuscular coordination, namely larval turning (see Materials and Methods for details). Larvae expressing TDPWT or TDPG298S in motor neurons (D42>TDP-43) were raised on food containing either 1, 5, 10, 25 μM pioglitazone or DMSO and assayed for their locomotor ability using larval turning assays.\n(§3) Assays were performed as described herein (33, 35). Briefly, wandering third instar larvae were placed on room temperature grape juice plates, allowed to acclimate then gently turned ventral side up. The time required for larvae to flip back to dorsal side up and start moving forward was noted as the larval turning time. At least 30 larvae per genotype and condition were tested."}, "[4]": {"tested_on": "Larvae expressing TDPG298S in motor neurons", "assay": "Larval turning assay, D42>TDPG298S", "assay_type": "in vivo, Drosophila", "settings": "1 μM pioglitazone in food; DMSO 25.8+/−1.8 sec", "protocol": "as §1, §2, §3"}, "ALS patients": {"tested_on": "ALS patients", "settings": "ALS patients administered pioglitazone; cited from earlier work"}, "D42>TDPWT larvae": {"tested_on": "D42>TDPWT larvae", "assay": "Global metabolomic profiling, D42>TDPWT larvae", "assay_type": "in vivo, Drosophila", "settings": "1 μM pioglitazone", "protocol": "To gain insight into the mechanism by which pioglitazone is neuroprotective, a global metabolomic approach was taken using larvae expressing TDP-43 in motor neurons (D42>TDP-43) and D42>w1118 controls raised on either 1 μM pioglitazone, DMSO or regular food. To determine specific metabolites that were restored by pioglitazone in the context of TDPWT, the metabolic profiles of D42>TDPWT larvae raised on drug food versus DMSO were compared and 111 alterations were found among a total of 572 metabolites detected in the samples. […] This led to the identification of 28 metabolites altered by both pioglitazone and TDPWT (Table 2). […] In addition, 6 metabolites further altered by pioglitazone in the same direction as that of TDP-43 were found, consistent with a potential worsening effect. Among the 28 metabolites some were also affected by DMSO alone as determined by comparing the metabolic profiles of D42>TDPWT larvae raised on DMSO and D42>TDPWT larvae raised on regular food.\nD42 Gal4 virgin females were crossed with UAS TDP-43 YFP or w1118 males and raised on regular food (RF), DMSO or 1 μM Pioglitazone (PGZ) containing food. 50-60 third instar larvae (approximately 50-60 mg) were collected and flash frozen in liquid nitrogen. Samples were made in 5 replicates. Global metabolomic study was performed following standard protocols by Metabolon, INC (Durham, N.C.). Briefly, protein samples were divided into four fractions: one for analysis by UPLC-MS/MS with positive ion mode electrospray ionization, one for analysis by UPLC-MS/MS with negative ion mode electrospray ionization, one for analysis by GC-MS, and one sample was reserved for backup. Raw data was extracted, peak-identified and QC processed using Metabolon's hardware and software. Compounds were identified by comparison to library entries of purified standards or recurrent unknown entities. Peaks were quantified using area-under-the-curve. Following normalization to Bradford protein concentration data were log transformed. Missing values for a given metabolite were imputed with the minimum observed value for each compound based on the assumption that they were below the limit of instrument detection sensitivity. For studies spanning multiple days, a data normalization step was performed to correct variation resulting from instrument inter-day tuning differences.\nStudent's T test was used for statistical analysis of larval turning experiments and Log-rank test was used for survival analyses. For metabolomics standard statistical analyses were performed in ArrayStudio on log transformed data. For those analyses not standard in ArrayStudio, the programs R (cran.r-project.org/) or JMP (jmp.com) were used. Welch's two-sample t-test and matched pairs t-test were used to compute p-values. False discovery rates were calculated as described (69)."}, "[5]": {"tested_on": "wild-type control larvae (D42>w1118)", "assay": "Larval turning assay, wild-type control larvae", "assay_type": "in vivo, Drosophila", "settings": "1 μM pioglitazone", "protocol": "as §2, §3"}},
  "data": [
    {"compound": "CCc1ccc(CCOc2ccc(CC3SC(=O)NC3=O)cc2)nc1", "note": "(stereo not drawn) [Pioglitazone]", "values": [
      {"measurement": "Av. % rescue (number of rescued adults/total number of pupae × 100%)", "setting": "[1]; PGZ 1 μM", "value": 19.4, "unit": "%"},
      {"measurement": "Av. % rescue (number of rescued adults/total number of pupae × 100%)", "setting": "[1]; PGZ 10 μM", "value": 15.0, "unit": "%"},
      {"measurement": "Av. % rescue (number of rescued adults/total number of pupae × 100%)", "setting": "[1]; PGZ 25 μM", "value": 9.7, "unit": "%"},
      {"measurement": "Av. % rescue (number of rescued adults/total number of pupae × 100%)", "setting": "[2]; PGZ 1 μM", "value": 15.2, "unit": "%"},
      {"measurement": "Av. % rescue (number of rescued adults/total number of pupae × 100%)", "setting": "[2]; PGZ 10 μM", "value": 1.7, "unit": "%"},
      {"measurement": "Av. % rescue (number of rescued adults/total number of pupae × 100%)", "setting": "[2]; PGZ 25 μM", "value": 0.8, "unit": "%"},
      {"measurement": "Preliminary rescue result: adults with normal wings", "setting": "[2]; transgene WT2, 50 μM in fly food", "value": 1, "unit": "Adult Normal Wings Adults"},
      {"measurement": "Rescue Effect", "setting": "[2]; transgene wt, primary screening (50 μM), out of 15-20 pupae", "value": 1, "unit": "adults"},
      {"measurement": "larval turning time", "setting": "[3]", "value": "9.2 ± 0.7", "unit": "s"},
      {"measurement": "larval turning time", "setting": "[4]", "value": "17.3 ± 1.1", "unit": "s"},
      {"measurement": "hazard ratio for mortality", "setting": "ALS patients", "value": "increase in hazard ratio for mortality"},
      {"measurement": "metabolites altered by both pioglitazone and TDPWT", "setting": "D42>TDPWT larvae", "value": 28},
      {"measurement": "metabolites altered in opposite direction compared to TDPWT (restoration)", "setting": "D42>TDPWT larvae", "value": 14},
      {"measurement": "metabolites further altered in the same direction as TDP-43 (worsening)", "setting": "D42>TDPWT larvae", "value": 6},
      {"measurement": "metabolites similarly affected by pioglitazone and TDPWT (no further change)", "setting": "D42>TDPWT larvae", "value": 8},
      {"measurement": "saccharopine level, pioglitazone compared to DMSO", "setting": "D42>TDPWT larvae", "value": 0.67},
      {"measurement": "N-acetylglutamine level, pioglitazone versus DMSO", "setting": "D42>TDPWT larvae; Pvalue<0.05", "value": 0.74},
      {"measurement": "4-hydroxybutyrate (GHB) level, pioglitazone compared to DMSO", "setting": "D42>TDPWT larvae; Pvalue=0.04", "value": 0.41},
      {"measurement": "metabolite alterations, drug food versus DMSO", "setting": "D42>TDPWT larvae; among a total of 572 metabolites", "value": 111},
      {"measurement": "pyruvate level, pioglitazone compared to DMSO", "setting": "D42>TDPWT larvae; not significant", "value": 0.68},
      {"measurement": "effect on larval turning time in control larvae", "setting": "[5]", "value": "no effect"}
    ]}
  ]
}
